Literature values, collected in article PMC11238383, “A review on the cultivation, bioactive compounds, health-promoting factors and clinical trials of medicinal mushrooms Taiwanofungus camphoratus, Inonotus obliquus and Tropicoporus linteus” (Fungal Biology and Biotechnology, 2024).
≈ marks a conversion by molar mass, not a printed value.

Experiments:
[1] = ref Lee et al. [226]
[2] = tested on: LPS-stimulated RAW264.7 cells; design: method as in Huang et al. [212], [243]; conditions: ref Huang et al. [212], [243]
[3] = tested on: Influenza A H1N1 virus; design: method as in Hwang et al. [13]; conditions: 10 uM; ref Hwang et al. [13]
[4] = biological target: H1N1 neuraminidase; conditions: ref [13]
[5] = tested on: Oxidative stress-induced HepG2 cells; design: method as in Kumar et al. [180]; conditions: pretreatment, after 24 h; ref Kumar et al. [180]
[6] = tested on: Obesity-induced Wistar rats; design: method as in Chen et al. [181]; conditions: ref Chen et al. [181]
[7] = tested on: breast cancer cells; design: method as in PMID 25656647; conditions: ref [71]
[8] = tested on: Streptozotocin-induced diabetic C57BL/6J mice; design: method as in Lin et al. [176]; conditions: ref Lin et al. [176]
[9] = tested on: High-fat diet-induced C57BL/6J mice; design: method as in Lin et al. [175]; conditions: ref Lin et al. [175]
[10] = tested on: High-fat diet-induced C57BL/6J mice; design: method as in Kuo et al. [178]; conditions: ref Kuo et al. [178]
[11] = tested on: Ultraviolet B-irradiated BALB/cAnN.Cg-Foxn1nu/CrlNarl hairless mice; design: method as in Kuo et al. [184]; conditions: topical 25 and 100 μM; ref Kuo et al. [184]
[12] = tested on: MCF7, MDA-MB-231, T24 and J82 cells; design: method as in Lu et al. [232]; conditions: ref Lu et al. [232]
[13] = tested on: C2C12 cells; design: method as in Kuo et al. [177]; conditions: in vitro; ref Kuo et al. [177]
[14] = tested on: Streptozotocin-induced diabetic C57BL/6J mice; design: method as in Kuo et al. [177]; conditions: in vivo; ref Kuo et al. [177]
[15] = tested on: Oleic and palmitic acids (O/P) lipid accumulation-induced HepG2 cells; design: method as in Chiu et al. [138]; conditions: ref Chiu et al. [138]
[16] = tested on: Severe acute respiratory syndrome coronavirus 2 (SARS-CoV-2) virus-infected HepG2 cells; design: method as in Li et al. [35], [38]; conditions: ref Li et al. [35], [38]
[17] = tested on: 3CL protease; design: method as in Li et al. [35], [38]; conditions: ref Li et al. [35], [38]
[18] = tested on: aldose reductase; design: method as in Lee et al. [136]; conditions: ref Lee et al. [136]
[19] = tested on: Chang liver cells; design: method as in Parfenov et al. [216]; conditions: I. obliquus; 10^−5 and 10^−3 g/L; ref Parfenov et al. [216]
[20] = tested on: Carbon tetrachloride (CCl4) liver damage induced-Sprague Dawley rats; design: method as in Parfenov et al. [216]; conditions: I. obliquus; ref Parfenov et al. [216]
[21] = tested on: Chronic alcohol-induced liver disease in C57BL/6J (B6) mice; design: method as in Chang et al. [182]; conditions: ref Chang et al. [182]
[22] = tested on: H1264; design: method as in Baek et al. [203]; conditions: ref Baek et al. [203]
[23] = tested on: H1299; design: method as in Baek et al. [203]; conditions: ref Baek et al. [203]
[24] = tested on: Calu-6; design: method as in Baek et al. [203]; conditions: ref Baek et al. [203]
[25] = tested on: C2C12 cells; design: method as in Kuo et al. [174]; conditions: ref Kuo et al. [174]
[26] = tested on: C57BL/6J mice; conditions: 40 mg/kg/day versus Metformin 300 mg/kg/day; ref [174]
[27] = tested on: Streptozotocin-induced diabetic C57BL/6J mice; design: method as in Kuo et al. [178]; conditions: ref Kuo et al. [178]
[28] = tested on: Hepatitis C virus (HCV) protease; design: method as in My et al. [190]; conditions: ref My et al. [190]

CC1=CC(=O)/C(=C/c2ccc(O)c(O)c2)O1 [Inotilone, inotilone]
antioxidant activity [1]: Potent antioxidant activity, with higher antioxidant activity than BHA and Trolox in FRAP assay | NO, iNOS, NF-κB, MMP-9 [2]: Inhibit NO production, iNOS, NF-κB, and MMP-9 expressions, and LPS-induced ERK, JNK, and p38 phosphorylation | visible cytopathic effects [3]: 10 uM of both inhibited the formation of visible cytopathic effects, with IC50 values lower than Oseltamivir | IC50 [4]: 61 µM | neuraminidase activity [4]: inhibit neuraminidase activity

COC1=C(OC)[C@H](O)[C@H](C/C=C(\C)CC/C=C(\C)CCC=C(C)C)[C@@H](C)C1=O [Antroquinonol, antroquinonol]
rise in ALT and AST caused by ethanol [5]: Antroquinonol pretreatment considerably and dose-dependently decreased the rise in ALT and AST caused by ethanol after 24 h in HepG2 cells | hepatoprotective effect [6]: Exerts hepatoprotective effects by inhibiting hepatic lipid accumulation | migration and invasion [7]: inhibit the migration and invasion of breast cancer cells

C=C(CC[C@@H](C(=O)O)[C@H]1C[C@H](O)[C@@]2(C)C3=C(CC[C@]12C)[C@@]1(C)CC[C@H](O)C(C)(C)[C@@H]1CC3)C(C)C [Sulphurenic acid]
insulin and HbA1c [8]: Rise of insulin levels and reduction in the concentration of glycated hemoglobin (HbA1c) | PPAR-α expression in the liver [9]: Increased expression of PPAR-α in the liver which facilitated fatty acid oxidation and the reduction of lipid levels

CC(C)[C@@H](C)/C=C/[C@@H](C)[C@H]1CC[C@H]2C3=CCC4C[C@@H](O)CC[C@]4(C)C3=CC[C@]12C (stereo partly drawn) [Ergostatrien-3β-ol]
visceral adipocyte size, hepatic ballooning [10]: Reduced visceral adipocyte size and induced hepatic ballooning degeneration | MMP-1, IL-6, iNOS, NF-κB in skin [11]: Significant inhibition of metalloproteinase-1 (MMP-1), IL-6, iNOS and NF-κB in skin

CC(=O)/C=C(O)/C=C/c1ccc(O)c(O)c1 [Hispolon, hispolon]
suppression of cancer cells [12]: Suppressed p53 mutant (MDA-MB-231, T24, and J82) and wild-type (MCF7) cells regardless of p53 status Apoptosis characterized by chromatin condensation and poly (ADP-ribose) polymerase (PARP) increase

C=C(CC[C@@H](C(=O)O)[C@H]1CC[C@@]2(C)C3=CC[C@H]4C(C)(C)[C@@H](O)CC[C@]4(C)C3=CC[C@]12C)C(C)C [Dehydroeburicoic acid]
GLUT4 expression [13]: Higher expression of GLUT4 | decrease in blood glucose level [14]: 43.6–46.5%

O=c1cc(O)cc([C@H]2c3c(cc(/C=C/c4ccc(O)c(O)c4)oc3=O)O[C@@H]2c2ccc(O)c(O)c2)o1 [Hypholomine B, hypholomine B]
lipid accumulation [15]: Significant reduction in lipid accumulation | ACE2 gene expression [16]: Reduced the expression of angiotensin-converting enzyme 2 (ACE2) gene | 3CL protease [17]: Inhibition of 3CL protease | aldose reductase inhibition [18]: capable of inhibiting aldose reductase

Melanin
increase in viability of liver cells intoxicated with d-galactosamine [19]: 2–2.5 times | liver damage findings [20]: Decrease in fat buildup, steatosis, necrosis

CC(C)[C@@H](C)/C=C/[C@@H](C)[C@H]1CC[C@H]2C3=CCC4C[C@@H](O)CC[C@]4(C)C3=CC[C@]12C (some centres unmarked) [Antrosterol]
hepatoprotective findings [21]: Reduction in serum/hepatic lipids, rise in output of fecal lipid/bile-acid output, amplified hepatic antioxidant activities, reduced serum alcohol level, decrease liver inflammation, fibrosis, serum AST/ALT and TNF-α/IL-1β

CC(C)=CCC[C@@H](C=O)[C@H]1CC[C@@]2(C)C3=C(CC[C@]12C)[C@@]1(C)CC[C@H](O)C(C)(C)[C@@H]1CC3 [3β-hydroxylanosta-8,24-dien-21-al]
IC50 [22]: 90.9 µg/mL (≈ 206 µM) | IC50 [23]: 128.0 µg/mL (≈ 290 µM) | IC50 [24]: 75.1 µg/mL (≈ 170 µM)

C=C(CC[C@@H](C)[C@H]1CC[C@H]2C3=C(C(=O)C[C@]12C)[C@@]1(C)CC[C@@H](O)[C@](C)(O)[C@@H]1C[C@@H]3O)C(C)C(=O)O (some centres unmarked) [Antcin K]
GLUT4 and phospho-Akt expression [25]: Enhance membrane glucose transporter 4 (GLUT4) and phosphor-Akt expressions | antihyperglycemic effect [26]: comparable to Metformin | FAS, CPT-1a, PPARα expression [27]: Fatty acid synthase (FAS) expression levels declined while hepatic expression levels of carnitine palmitoyl transferase 1a (CPT-1a) and peroxisome proliferator-activated receptor α (PPARα) rose

CC(C)=CCOc1ccc(C2=C(CC(C)C)C(=O)OC2=O)cc1 [Antrodin A]
half-maximal inhibitory concentration (IC50) [28]: Antrodins A to E, except antrodin B, exhibited potent inhibitory effects against the HCV protease, with Antrodin A having the highest potency with a half-maximal inhibitory concentration (IC50) value of 0.9 µg/mL
